Laboratory results from patent US10301284B2, “Therapeutic inhibitory compounds” (LifeSci Pharmaceuticals, Inc., priority 2016, dated 2019).
Like-named read-outs stand apart in the source and are kept apart here.

Key:
[1] = Pharmacokinetic evaluation, oral exposure in rats; type: in vivo; details: rat; male Sprague-Dawley rats, single oral dose 10 mg/kg via oral gavage, plasma; read-out: AUC
Experimental: Pharmacokinetic studies of select compounds were performed to assess the pharmacokinetic properties. Male Sprague-Dawley rats were administered a single oral dose of the test compound at 10 mg/kg (dose concentration: 2 mg/mL, dose volume: 5 ml/kg) via oral gavage. Blood samples were collected via jugular vein at pre-dose, post-dose 5 min, 15 min, 30 min, 1 h, 2 h, 4 h, 6 h, 8 h, 10 h and 24 h, and centrifuged (8000 rpm for 6 minutes at 2-8° C.). The resulting plasma fractions were analyzed by LC/MS/MS to determine the concentration of the test compound.

human Plasma Kallikrein [2] = molecular target: T1, human Plasma Kallikrein (Homo sapiens (Human), UniProt P03952); test: In vitro enzyme inhibition of human plasma kallikrein (Pro-Phe-Arg-AMC cleavage); type: biochemical; details: human plasma kallikrein, PFR-AMC substrate, 37° C.; read-out: hPK IC50
T1 sequence (P03952 391-638 limits assumed): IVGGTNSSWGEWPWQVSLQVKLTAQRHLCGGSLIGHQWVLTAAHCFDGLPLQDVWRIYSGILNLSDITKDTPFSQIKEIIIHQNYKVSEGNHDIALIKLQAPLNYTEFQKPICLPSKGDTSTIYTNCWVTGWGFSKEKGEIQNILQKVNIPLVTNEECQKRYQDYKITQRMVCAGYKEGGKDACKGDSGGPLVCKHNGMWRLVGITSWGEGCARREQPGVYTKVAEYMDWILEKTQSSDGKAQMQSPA
T1 sequence (P03952 20-390 partner limits assumed): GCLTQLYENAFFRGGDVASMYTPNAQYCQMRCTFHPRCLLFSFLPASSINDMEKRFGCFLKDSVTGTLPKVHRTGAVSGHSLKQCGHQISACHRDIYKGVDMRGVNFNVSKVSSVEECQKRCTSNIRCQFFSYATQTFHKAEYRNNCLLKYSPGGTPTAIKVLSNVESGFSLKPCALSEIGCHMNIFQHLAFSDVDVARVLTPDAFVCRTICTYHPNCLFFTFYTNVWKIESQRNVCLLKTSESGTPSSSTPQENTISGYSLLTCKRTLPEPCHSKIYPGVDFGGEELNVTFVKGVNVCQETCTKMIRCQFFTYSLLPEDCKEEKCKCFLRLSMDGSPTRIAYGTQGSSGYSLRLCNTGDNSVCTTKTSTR
Outline: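 Human plasma kallikrein preincubated 5 min at 37 °C with compound in 50 mM Tris-HCl pH 7.5, 150 mM NaCl, 0.01% Triton X-100. Reaction started with Pro-Phe-Arg-AMC, fluorescence read every 43 s for 1 h at 37 °C. IC50 from highest mean velocity over 20 reads (~15 min).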

human Plasma Kallikrein [3] = molecular target: T1, human Plasma Kallikrein; test: Human whole blood kallikrein inhibition (ellagic acid-activated human plasma, Z-FR-2-AMC substrate); type: biochemical
Experimental: The ability of the compounds disclosed herein to inhibit human plasma kallikrein activity was quantified according to the procedures below.
All dilutions were prepared in an assay buffer comprising 50 mM Tris-HCl pH 7.2, 150 mM NaCl, and 0.01% Triton X-100.
Human plasma was thawed on ice and centrifuged for 15 min at 4° C. to remove platelets. A 1 mM stock solution of ellagic acid was diluted to 8 μM and mixed with human plasma, after removing platelets, at a ratio of 1:0.8. The mixture of human plasma and ellagic acid was further diluted 32-fold in the assay buffer, to yield the final mixture for use in the inhibition assay.
A 22.5 μL volume of the final mixture of human plasma and ellagic acid was added to a 96-well microwell plate and the plate was incubated for 15 min at 37° C.
The test compound solution was prepared to provide final concentrations of 20 μM, 5 μM, 1.25 μM, 312.5 nM, 78.125 nM, 19.531 nM, 4.883 nM, 1.221 nM, 0.305 nM, and 0.076 nM. Each test compound concentration was tested in duplicates.
In addition to the inhibitor control and test wells, the 96 well assay plate included positive control wells which contain the mixture of human plasma and ellagic acid without test compounds, and background wells which contain neither the mixture of human plasma and ellagic acid nor the test compounds. The total volume of liquid in positive control and background wells was brought up to 35 μL using the assay buffer.
The assay plate containing test compounds mixed with human plasma and ellagic acid and appropriate controls was incubated at 37° C. for 5 min. A 10 mM stock solution of substrate Z-FR-2-AMC was diluted to 133.2 μM in the assay buffer, and 15 μL of the diluted substrate was added to each well, to yield a final substrate concentration of 40 μM in each well. The reagents were mixed by shaking the plate gently for 30 sec.
The enzyme reaction was quantified by immediate kinetic reading of the assay plate using excitation/emission wavelengths of 330 nm/440 nm respectively. Fluorescence intensity was recorded for 60 min, using a time interval of 43 sec.
The inhibition activity of the test compounds were evaluated using the IC50 values, calculated according to the dose-response curve of the test compounds, fitted using the “log(inhibitor)−response(variable slope)” equation in GraphPadPrism software (GraphPad Software, Inc.).
The percentage inhibition (EC50) was calculated using the following equation:
[formula] where, Mean(BG) is the average value of the fluorescence intensity of the background wells and Mean(PC) is the average value of the fluorescence intensity of the positive control wells.

[4] = human plasma activated with ellagic acid, Z-FR-2-AMC 40 μM, 37° C., read-out: HWB EC50

| SMILES | AUC [1] [ng·h/mL] | IC50 (human Plasma Kallikrein [2]) [nM] | EC50 (human Plasma Kallikrein [3]; [4]) [nM] | EC50 (human Plasma Kallikrein [3]) [nM] |
| --- | --- | --- | --- | --- |
| Cc1cc(N)nc(C)c1CNC(=O)c1cn(Cc2ccc3ncc(Cl)cc3c2)nc1C [Example 38, N-((6-amino-2,4-dimethylpyridin-3-yl)methyl)-1-((3-chloroquinolin-6-yl)methyl)-3-methyl-1H-pyrazole-4-carboxamide] | 1000 to 10000 | < 100 | < 100 |  |
| Cc1cc(N)nc(C)c1CNC(=O)c1cn(Cc2cc(C(C)(C)O)c3ncc(Cl)cc3c2)nc1C#N [Example 58, N-((6-amino-2,4-dimethylpyridin-3-yl)methyl)-1-((3-chloro-8-(2-hydroxypropan-2-yl)quinolin-6-yl)methyl)-3-cyano-1H-pyrazole-4-carboxamide] | < 100 | < 100 | < 100 |  |
| Cc1cnc2c(S(C)(=O)=O)cc(Cn3cc(C(=O)NCc4c(C)cc(N)nc4C)c(C#N)n3)cc2c1 [Example 61, N-((6-amino-2,4-dimethylpyridin-3-yl)methyl)-3-cyano-1-((3-methyl-8-(methylsulfonyl)quinolin-6-yl)methyl)-1H-pyrazole-4-carboxamide] | < 100 | < 100 | < 100 |  |
| Cc1cc(N)nc(C)c1CNC(=O)c1cn(Cc2ccc3ncc(Cl)cc3c2)c2ncncc12 [Example 32, N-((6-amino-2,4-dimethylpyridin-3-yl)methyl)-7-((3-chloroquinolin-6-yl)methyl)-7H-pyrrolo[2,3-d]pyrimidine-5-carboxamide] | < 100 | < 100 |  | < 100 |
| Cc1cc(N)nc(C)c1CNC(=O)c1nc(N)n(Cc2ccc3ncc(Cl)cc3c2)n1 [Example 20, 5-amino-N-((6-amino-2,4-dimethylpyridin-3-yl)methyl)-1-((3-chloroquinolin-6-yl)methyl)-1H-1,2,4-triazole-3-carboxamide] | < 100 | < 100 | < 100 |  |
| Cc1cc(N)nc(C)c1CNC(=O)c1nn(Cc2ccc3ncc(Cl)cc3c2)nc1C#N [Example 95, N-((6-amino-2,4-dimethylpyridin-3-yl)methyl)-2-((3-chloroquinolin-6-yl)methyl)-5-cyano-2H-1,2,3-triazole-4-carboxamide] | 100 to 1000 | < 100 | < 100 |  |
| Cc1cc(N)nc(C)c1CNC(=O)c1cn(Cc2ccc3ncc(Cl)cc3c2)nc1C(F)(F)F [Example 15, N-((6-amino-2,4-dimethylpyridin-3-yl)methyl)-1-((3-chloroquinolin-6-yl)methyl)-3-(trifluoromethyl)-1H-pyrazole-4-carboxamide] | 1000 to 10000 | < 100 | < 100 |  |
| COc1nn(Cc2ccc3ncc(Cl)cc3c2)cc1C(=O)NCc1c(C)cc(N)nc1C [Example 39, N-((6-amino-2,4-dimethylpyridin-3-yl)methyl)-1-((3-chloroquinolin-6-yl)methyl)-3-methoxy-1H-pyrazole-4-carboxamide] | 1000 to 10000 | < 100 | < 100 |  |
| Cc1cc(N)nc(C)c1CNC(=O)c1noc(Cc2ccc3ncc(Cl)cc3c2)n1 [Example 7, N-((6-amino-2,4-dimethylpyridin-3-yl)methyl)-5-((3-chloroquinolin-6-yl)methyl)-1,2,4-oxadiazole-3-carboxamide] | 1000 to 10000 | < 100 | < 100 |  |
| Cc1cc(N)nc(C)c1CNC(=O)c1nn(Cc2ccc3ncc(Cl)cc3c2)c2ccc(=O)[nH]c12 [Example 138, N-((6-amino-2,4-dimethylpyridin-3-yl)methyl)-1-((3-chloroquinolin-6-yl)methyl)-5-oxo-4,5-dihydro-1H-pyrazolo[4,3-b]pyridine-3-carboxamide] | < 100 | < 100 |  | < 100 |
| N#Cc1nn(Cc2cc(F)c3ncc(Cl)cc3c2)cc1C(=O)NCc1ccc2c(N)nccc2c1 [Example 54, N-((1-aminoisoquinolin-6-yl)methyl)-1-((3-chloro-8-fluoroquinolin-6-yl)methyl)-3-cyano-1H-pyrazole-4-carboxamide] | < 100 | < 100 | < 100 |  |
| Cc1cc(N)nc(C)c1CNC(=O)c1nc(Cc2ccc3ncc(Cl)cc3c2)no1 [Example 6, N-((6-amino-2,4-dimethylpyridin-3-yl)methyl)-3-((3-chloroquinolin-6-yl)methyl)-1,2,4-oxadiazole-5-carboxamide] | 100 to 1000 | < 100 | < 100 |  |
| Cc1cnc2c(C#N)cc(Cn3cc(C(=O)NCc4c(C)cc(N)nc4C)c(C#N)n3)cc2c1 [Example 62, N-((6-amino-2,4-dimethylpyridin-3-yl)methyl)-3-cyano-1-((8-cyano-3-methylquinolin-6-yl)methyl)-1H-pyrazole-4-carboxamide] | < 100 | < 100 | < 100 |  |
| Cc1cc(N)nc(C)c1CNC(=O)c1cn(Cc2ccc3ncc(Cl)cc3c2)nn1 [Example 10, N-((6-amino-2,4-dimethylpyridin-3-yl)methyl)-1-((3-chloroquinolin-6-yl)methyl)-1H-1,2,3-triazole-4-carboxamide] | 1000 to 10000 | < 100 | < 100 |  |
| Cc1cc(N)nc(C)c1CNC(=O)c1cn(Cc2cc(F)c3ncc(Cl)cc3c2)nc1C#N [Example 52, N-((6-amino-2,4-dimethylpyridin-3-yl)methyl)-1-((3-chloro-8-fluoroquinolin-6-yl)methyl)-3-cyano-1H-pyrazole-4-carboxamide] | 100 to 1000 | < 100 | < 100 |  |
| COc1cc2c(C(=O)NCc3c(C)cc(N)nc3C)nn(Cc3ccc4ncc(Cl)cc4c3)c2cn1 [Example 122, N-((6-amino-2,4-dimethylpyridin-3-yl)methyl)-1-((3-chloroquinolin-6-yl)methyl)-5-methoxy-1H-pyrazolo[3,4-c]pyridine-3-carboxamide] | 100 to 1000 | < 100 |  | < 100 |
| Cc1cc(N)nc(C)c1CNC(=O)c1cn(Cc2ccc3ncc(C4CC4)cc3c2)nc1C#N [Example 65, N-((6-amino-2,4-dimethylpyridin-3-yl)methyl)-3-cyano-1-((3-cyclopropylquinolin-6-yl)methyl)-1H-pyrazole-4-carboxamide] | 100 to 1000 | < 100 | < 100 |  |
| Cc1cc(N)nc(C)c1CNC(=O)c1oc(Cc2ccc3ncc(Cl)cc3c2)nc1C(F)(F)F [Example 37, N-((6-amino-2,4-dimethylpyridin-3-yl)methyl)-2-((3-chloroquinolin-6-yl)methyl)-4-(trifluoromethyl)oxazole-5-carboxamide] | 100 to 1000 | < 100 | < 100 |  |
| Cc1cc(N)nc(C)c1CNC(=O)c1cnn(Cc2ccc3ncc(Cl)cc3c2)n1 [Example 21, N-((6-amino-2,4-dimethylpyridin-3-yl)methyl)-2-((3-chloroquinolin-6-yl)methyl)-2H-1,2,3-triazole-4-carboxamide] | 1000 to 10000 | < 100 | < 100 |  |
| Cc1cnc2c(C(C)(C)O)cc(Cn3ncc(C(=O)NCc4c(C)cc(N)nc4C)c3C#N)cc2c1 [Example 67, N-((6-amino-2,4-dimethylpyridin-3-yl)methyl)-5-cyano-1-((8-(2-hydroxypropan-2-yl)-3-methylquinolin-6-yl)methyl)-1H-pyrazole-4-carboxamide] | < 100 | 1000 to 10000 | < 100 |  |
| Cc1cc(N)nc(C)c1CNC(=O)c1nn(Cc2ccc3ncc(Cl)cc3c2)c2ccccc12 [Example 13, N-((6-amino-2,4-dimethylpyridin-3-yl)methyl)-1-((3-chloroquinolin-6-yl)methyl)-1H-indazole-3-carboxamide] | 100 to 1000 | < 100 |  | < 100 |
